pKi: −log10 of the molar value. Entries after “also recorded” stand apart in the source; their conditions may differ. Where two headings read alike, the source gives them in different places. Non-standard residues stand in square brackets, D forms with d. Residues, ends and D or L forms follow the SMILES beside them. *: point of attachment. NMeF = CN[C@@H](Cc1ccccc1)C(=O)O; Cit = NC(=O)NCCC[C@H](N)C(=O)O; Pip = O=C(O)[C@@H]1CCCCN1; ClAc = O=C(CCl)*
Columns and labels:
[1] = target: Pin1 (GST-Pin1) (Homo sapiens, UniProt Q13526); test: Fluorescence polarization (FP) assay, binding to Pin1
Pin1 (GST-Pin1), sequence (Q13526 whole entry): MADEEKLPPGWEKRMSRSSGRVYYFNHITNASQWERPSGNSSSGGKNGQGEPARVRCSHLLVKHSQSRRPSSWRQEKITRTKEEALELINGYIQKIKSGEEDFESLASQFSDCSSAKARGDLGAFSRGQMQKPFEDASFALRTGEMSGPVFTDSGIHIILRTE

[2] = target: Pin1 Cys 113 (Homo sapiens, UniProt Q13526); test: Covalent labeling (intact MS); assay type: binding
Pin1 Cys 113, sequence (Q13526 whole entry): as above
Procedure: 5 μg of purified Pin1 protein in 50 μL of 20 mM HEPES pH 7.5 and 75 mM NaCl was incubated with 5 μM of respective Pin1 inhibitors for 0-3 hr. A Shimadzu XR HPLC was used to inject the entire sample onto a self-packed reverse-phase column (1/32 in outer diameter×500 μm inner diameter, 5 cm of POROS 50R2 resin). After desalting, protein was eluted with an HPLC gradient (0%-100% B in 4 min, A=0.2 M acetic acid in water, B=0.2 M acetic acid in acetonitrile, flow rate=10 μl/min) into a LTQ XL mass spectrometer (Thermo Fisher Scientific, San Jose, Calif., USA). LTQ XL MS spectra were acquired in centroid mode using the electron multipliers for ion detection. Mass spectra were deconvoluted using MagTran1.03b2 software (Zhang and Marshall, J. Am. Soc. Mass Spectrom. 9:225-233 (1998)).

[3] = system: phosphoRb (S780), phosphoRb (S801/811), β-Catenin, cJun, cMyc and phosphoH3 (S10); test: Downstream signaling, western blot in TNBC MDA-MB-231 cells; assay type: cell-based; conditions: 10 μM, 1, 2, 4, 6 and 8 hours
Procedure: TNBC MDA-MB-231 cells were plated in 6-well plates at a density of 100,000 cells per well in 2 mL media. The day after plating, cells were treated with the indicated concentration of compound 18, and harvested at 1, 2, 4, 6, and 8 hours. To harvest, the cells were washed with PBS, and then lysed in RIPA Lysis Buffer (Thermo Scientific™, cat. #89900, with protease inhibitors (Roche). Lysates were clarified by centrifugation (14,000 rpm for 15 min at 4° C.), and protein concentrations were determined by BCA. The samples were normalized and prepared in 4× LDS+10% β-mercaptoethanol, and were then boiled at 95° C. for 5 minutes. Lysates were probed for specified proteins by western blotting using the Bolt system (Life Technologies™).

[4] = system: PATU-8988T cells; test: Time-dependent antiproliferative activity (CellTiter-Glo); assay type: cell-based; conditions: Day 0, 2, 4, 6 and 8
Procedure: PATU-8988T cells were plated at a density of 100 cells per well in 100 μL media in a 96-well white clear bottom plate (Corning cat #3903), with at least one plate per time point (Day 0, 2, 4, 6 and 8). Cells were treated the day after plating with 1 μL of DMSO or Compound 18 to give the indicated concentrations, and were then incubated at 37° C. 5% CO2. Every 48 hours, the media was aspirated and replaced with fresh media containing fresh compound or DMSO. When the indicated time points had been reached, cell viability was evaluated using the CellTiter-Glo Luminescent Cell Viability Assay (Promega cat #G7570) according to the manufacturer's standards, measuring luminescence using an Envision plate-reader. The Day 0 time point plates were read the day after plating, prior to compound treatment. N=3 biological replicates were used for each treatment condition.

[5] = target: T1, Pin1 (Homo sapiens, UniProt Q13526); test: Lysate target engagement (pull down with biotinylated probes; competition assay); assay type: binding; parameters: endogenous in cells; host or cells: MDA-MB-231
T1 sequence (Q13526 whole entry): as above
Summary of the method: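 MDA-MB-231 (TNBC) lysates, 500 μg protein, incubated 1 h at 4 °C with compound, then streptavidin pull-down 2 h at 4 °C; western blot read-out. Competition format: lysate pre-incubated overnight at 4 °C with competitor, then 1 μM desthiobiotin probe for 1 h before pull-down.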

[6] = target: T1, Pin1; test: Cellular target engagement, live cell biotin competition assay in TNBC MDA-MB-231 cells; assay type: cell-based; parameters: endogenous in cells; host or cells: MDA-MB-231
Procedure: TNBC MDA-MB-231 cells were plated in 10 cm plates with 2.5 million cells per plate in 6 mL of media. The day after plating, cells were treated with the indicated concentrations of compound 18 for 5 hours. The cells were washed 2× with 0.9% NaCl (1 mL per 10 cm plate), and collected by scraping with a cell scraper. Cells were lysed in lysis buffer (50 mM Hepes pH 7.5, 150 mM NaCl, 1 mM EDTA, 10% v/v glycerol, 0.5% v/v […], protease inhibitors (Roche)) using 210 μL of cell lysis buffer per 10 cm plate of cells. After clarifying by centrifugation (14,000 rpm for 15 min at 4° C.), 5 μL of each lysate sample was combined with 5 μL of 2× LDS+10% β-mercaptoethanol, boiled for 5 minutes, and set aside for the input loading control (later to be loaded directly in the gel). Then, 200 μL of each lysate was then incubated with 1 μM of compound 2-32 (biotin probe compound) for 1 hour at 4° C. Lysates were then incubated with streptavidin agarose resin (30 μL of 1:1 beads: lysis buffer slurry) (Thermo Scientific™, cat. #20349) for 2 hours at 4° C. Beads were washed 4 times with 500 μL of washing buffer (50 mM Hepes, pH7.5, 10 mM NaCl, 1 mM EDTA, 10% glycerol), then pelleted by centrifugation and dried. The beads were then boiled at 95° C. for 5 minutes in 30 μL of 2× LDS+10% β-mercaptoethanol. Lysates were probed for specified proteins by western blotting using the Bolt system (Life Technologies™).

With CCOC(=O)[C@H](CCCNC(N)=O)NC(=O)[C@H](Cc1c[nH]c2ccccc12)NC(=O)[C@@H]1CCCCN1C(=O)[C@H](Cc1ccccc1)N(C)C(=O)CCl [Compound 18, Ethyl (S)-2-((S)-2-((S)-1-(N-(2-chloroacetyl)-N-methyl-L-phenylalanyl)piperidine-2-carboxamido)-3-(1H-indol-3-yl)propanamido)-5-ureidopentanoate] (ClAc-[NMeF][Pip]W[Cit]-OEt) as the compound, how does the pKi ([1]; read-out: Ki quoted in figure legend, assay not named) read?
The pKi was 7.70.

And the pKi ([1]; text and figure legend, read-out: Ki (fluorescence polarization, FIG. 1B))?
Its pKi is 7.70.

What about the “covalent labeling of Pin1” value ([2]; 30-minute room temperature incubation at 1:1 Pin1:compound) of the same compound?
Its value is 100%.

And the “Covalent? (In tact MS), % labeling” value ([2]; purified Pin1 with 5 μM inhibitor, 0-3 hr)?
The value was “Yes (100%”.

What about the “downstream signaling changes (FIG. 9)” value [3] of the same compound?
The value was “a decrease in phosphoRb, β-Catenin, cJun, phosphoH3 (S10), and a temporary increase in c-Myc; also recorded: induced changes in downstream signaling”.

And the “cell viability (FIG. 10)” value [4]?
The value was “dose-dependent and time-dependent defects in cell viability”.

What about the “competition with compound 2c for Pin1 (FIG. 6B legend)” value ([5]; HEK 293 cell lysate as printed in legend) of the same compound?
Its value is “competes with compound 2c for binding of Pin1”.

What about the “lysate target engagement by competition with 1 μM compound 2c (FIG. 6B)” value ([5]; TNBC-MDA-MB-231 cell lysate, pre-incubation overnight at 4° C.) of the same compound?
Its value is “potently engaged Pin1”.

What about the “Lysate Target Engagement?” value ([5]; TNBC-MDA-MB-231 lysate, biotin/dtb probes: pull down, others: competition, concentration under E5) of the same compound?
The value was “Yes-”.

And the “Lysate Target Engagement? concentration stated for the engagement or pull down” value ([5]; read with the E4 line of the same compound (complete, partial, probe pull down))?
Its value is 500 µM.

What about the “concentration at which cellular Pin1 is fully engaged (FIG. 7B)” value ([6]; TNBC MDA-MB-231 cells, 5 hours) of the same compound?
The value was no more than 5 µM.

And the “Cellular Target Engagement?” value ([6]; TNBC MDA-MB-231 cells, 5 hours treatment, concentration under E7)?
Its value is “Yes-Complete”.

And the “Cellular Target Engagement? concentration stated for complete engagement” value ([6]; TNBC MDA-MB-231 cells, read with the E6 line)?
The value was “at 5 μM”.

And the “live cell competition with compound 2-32 (FIG. 7B legend)” value ([6]; preincubation of live TNBC-MDA-MB-231 cells with increasing concentrations)?
Its value is “outcompetes compound 2-32 for Pin1 binding”.

— patent US20210238225A1, “PEPTIDOMIMETIC INHIBITORS OF THE PEPTIDYL-PROLYL CIS/TRANS ISOMERASE (PIN1)” (DANA-FARBER CANCER INSTITUTE, INC., priority 2018, published 2021)
